Laboratory results as given in the NIST ThermoML archive (doi:10.1021/je101361u).
Numbers after ± are expanded uncertainties.

Assay: xn = mol fraction of the nth substance listed
Settings: 101.3 kPa, Liquid

COCCOC [1,2-dimethoxyethane] + ClCCCl
mass density [kg/m3]
Settings | 283.15 K | 288.15 K | 293.15 K | 298.15 K | 303.15 K | 308.15 K
x2 = 0.0251 | 885.37 ± 0.49 | 879.96 ± 0.49 | 874.49 ± 0.5 | 868.99 ± 0.51 | 863.45 ± 0.51 | 857.87 ± 0.52
x2 = 0.05 | 893.06 ± 0.48 | 887.61 ± 0.48 | 882.11 ± 0.49 | 876.59 ± 0.49 | 871.02 ± 0.5 | 865.42 ± 0.51
x2 = 0.0501 | 893.14 ± 0.48 | 887.69 ± 0.48 | 882.19 ± 0.49 | 876.66 ± 0.49 | 871.08 ± 0.5 | 865.47 ± 0.51
x2 = 0.075 | 900.9 ± 0.46 | 895.43 ± 0.47 | 889.9 ± 0.47 | 884.34 ± 0.48 | 878.74 ± 0.49 | 873.1 ± 0.49
x2 = 0.1 | 908.78 ± 0.45 | 903.28 ± 0.45 | 897.71 ± 0.46 | 892.12 ± 0.47 | 886.49 ± 0.47 | 880.82 ± 0.48
x2 = 0.1552 | 926.63 ± 0.42 | 921.05 ± 0.42 | 915.42 ± 0.43 | 909.76 ± 0.44 | 904.05 ± 0.44 | 898.32 ± 0.45
x2 = 0.2001 | 941.4 ± 0.39 | 935.76 ± 0.4 | 930.07 ± 0.41 | 924.35 ± 0.41 | 918.59 ± 0.42 | 912.79 ± 0.42
x2 = 0.2501 | 958.23 ± 0.37 | 952.53 ± 0.37 | 946.77 ± 0.38 | 940.98 ± 0.39 | 935.15 ± 0.39 | 929.28 ± 0.4
x2 = 0.3002 | 975.46 ± 0.34 | 969.68 ± 0.35 | 963.86 ± 0.35 | 957.99 ± 0.36 | 952.09 ± 0.37 | 946.16 ± 0.37
x2 = 0.35 | 992.96 ± 0.32 | 987.11 ± 0.32 | 981.21 ± 0.33 | 975.28 ± 0.34 | 969.3 ± 0.34 | 963.29 ± 0.35
x2 = 0.4001 | 1010.98 ± 0.32 | 1005.05 ± 0.31 | 999.08 ± 0.31 | 993.07 ± 0.31 | 987.02 ± 0.32 | 980.93 ± 0.32
x2 = 0.45 | 1029.37 ± 0.34 | 1023.36 ± 0.33 | 1017.3 ± 0.32 | 1011.21 ± 0.32 | 1005.09 ± 0.31 | 998.92 ± 0.3
x2 = 0.5 | 1048.22 ± 0.36 | 1042.13 ± 0.35 | 1035.99 ± 0.34 | 1029.82 ± 0.33 | 1023.61 ± 0.33 | –
x2 = 0.5001 | 1048.32 ± 0.36 | 1042.23 ± 0.35 | 1036.09 ± 0.34 | 1029.91 ± 0.33 | 1023.7 ± 0.33 | –
x2 = 0.55 | 1067.59 ± 0.38 | 1061.41 ± 0.37 | 1055.19 ± 0.36 | 1048.93 ± 0.36 | 1042.63 ± 0.35 | –
x2 = 0.6001 | 1087.41 ± 0.4 | 1081.15 ± 0.39 | 1074.83 ± 0.39 | 1068.48 ± 0.38 | 1062.09 ± 0.37 | –
x2 = 0.65 | 1107.73 ± 0.43 | 1101.37 ± 0.42 | 1094.96 ± 0.41 | 1088.51 ± 0.4 | 1082.03 ± 0.39 | –
x2 = 0.7 | 1128.6 ± 0.45 | 1122.14 ± 0.44 | 1115.63 ± 0.43 | 1109.08 ± 0.42 | 1102.5 ± 0.41 | –
x2 = 0.75 | 1150.14 ± 0.48 | 1143.57 ± 0.47 | 1136.95 ± 0.46 | 1130.3 ± 0.45 | 1123.6 ± 0.44 | –
x2 = 0.8 | 1172.13 ± 0.51 | 1165.45 ± 0.5 | 1158.71 ± 0.49 | 1151.94 ± 0.48 | 1145.15 ± 0.47 | –
x2 = 0.85 | 1195.03 ± 0.54 | 1188.23 ± 0.53 | 1181.37 ± 0.52 | 1174.49 ± 0.51 | 1167.57 ± 0.5 | –
x2 = 0.9 | 1218.48 ± 0.57 | 1211.55 ± 0.55 | 1204.56 ± 0.54 | 1197.56 ± 0.53 | 1190.51 ± 0.52 | –
x2 = 0.925 | 1230.36 ± 0.58 | 1223.37 ± 0.57 | 1216.32 ± 0.56 | 1209.25 ± 0.55 | 1202.14 ± 0.54 | –
x2 = 0.975 | 1254.94 ± 0.61 | 1247.8 ± 0.6 | 1240.62 ± 0.59 | 1233.42 ± 0.58 | 1226.18 ± 0.57 | –
